Test results as given in patent US20120077828A1, “CHEMICAL COMPOUNDS” (priority 2010, published 2012).

target: T1, PERK (Homo sapiens, UniProt Q9NZJ5); assay: PKR-like Endoplasmic Reticulum Kinase (PERK) Assay (HTRF Format); assay type: biochemical; details: average, in at least one set of experimental runs; read-out: average pIC50 value against PERK (converted)
T1 construct: GST-PERK (536-1116) cytoplasmic domain was purchased from Invitrogen; purchased Invitrogen PV5106
T1 sequence (Q9NZJ5 536-1116): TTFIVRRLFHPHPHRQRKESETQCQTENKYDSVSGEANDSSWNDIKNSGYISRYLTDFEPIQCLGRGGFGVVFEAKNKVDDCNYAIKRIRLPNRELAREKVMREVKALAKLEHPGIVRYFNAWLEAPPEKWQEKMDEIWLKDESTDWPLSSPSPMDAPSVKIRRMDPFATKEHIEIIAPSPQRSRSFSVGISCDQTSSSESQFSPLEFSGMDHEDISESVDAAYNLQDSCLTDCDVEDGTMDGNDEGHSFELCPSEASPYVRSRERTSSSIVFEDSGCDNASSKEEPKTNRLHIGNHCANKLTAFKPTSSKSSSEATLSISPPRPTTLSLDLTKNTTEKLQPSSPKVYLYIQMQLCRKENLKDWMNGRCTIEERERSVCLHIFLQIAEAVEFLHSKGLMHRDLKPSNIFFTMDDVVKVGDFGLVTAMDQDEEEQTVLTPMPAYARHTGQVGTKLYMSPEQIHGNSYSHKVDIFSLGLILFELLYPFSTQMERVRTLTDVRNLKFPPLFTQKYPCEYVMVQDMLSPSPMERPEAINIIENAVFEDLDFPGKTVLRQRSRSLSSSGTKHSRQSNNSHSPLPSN
Experimental: PKR-like Endoplasmic Reticulum Kinase (PERK) Assay (HTRF Format)
Source of substrate: elF2α: 6-His-Full-length human elF2α is purified from baculovirus expression in Sf9 insect cells. The elF2 protein is buffer exchanged by dialysis into PBS, chemically modified by NHS-LC-Biotin and then buffer exchanged by dialysis into 50 mm TRIS pH 7.2/250 mM NaCl/5 mM DTT. Protein is aliquoted and stored at −80° C.
Assays were performed by adding GST-PERK solution to assay plates containing compounds and pre-incubated for 30 minutes at room temperature. The reaction is initiated by the addition of ATP and EIF2α substrate solution. Quench solution is added following a one hour incubation at room temperature. The plates are covered for 2 hours at room temperature prior to determination of signal. The resulting signal is quantified on a Viewlux Reader (PerkinElmer). The APC Signal is normalized to the Europium signal by transforming the data through an APC/Eu calculation.
Compounds under analysis were dissolved in DMSO to 1.0 mM and serially diluted 1 to 3 with DMSO through eleven dilutions. 0.1 μl of each concentration was transferred to the corresponding well of an assay plate. This creates a final compound concentration range from 0.00017 to 10 μM.
The data for concentration response curves were plotted as % Inhibition calculated with the data reduction formula 100*(1−(U1−C2)/(C1−C2)) versus concentration of compound where U is the unknown value, C1 is the average control value obtained for 1% DMSO, and C2 is the average control value obtained for 0.1 M EDTA. Data were fitted with a curve described by:
where A is the minimum y, B is the maximum y concentration [M], D is the slope factor, and x is the log10 of the compound.
In the above data, pIC50 is defined as −log(IC50) where the IC50 value is expressed in molar units.

| IC50 [nM] | SMILES |
| --- | --- |
| ≤ 1 | Cn1cc(-c2ccc3c(c2)CCN3C(=O)Cc2cc(F)cc(F)c2)c2c(N)ncnc21 [Example 89, 5-{1-[(3,5-difluorophenyl)acetyl]-2,3-dihydro-1H-indol-5-yl}-7-methyl-7H-pyrrolo[2,3-d]pyrimidin-4-amine] |
| ≤ 1 | Cc1cccc(CC(=O)N2CCc3cc(-c4cn(C5CNC5)c5ncnc(N)c45)ccc32)c1 [Example 92, 7-(3-azetidinyl)-5-{1-[(3-methylphenyl)acetyl]-2,3-dihydro-1H-indol-5-yl}-7H-pyrrolo[2,3-d]pyrimidin-4-amine] |
| ≤ 0.316 | Cn1cc(-c2ccc3c(c2)CCN3C(=O)Cc2cc(Cl)ccc2F)c2c(N)ncnc21 [Example 100, 5-{1-[(5-chloro-2-fluorophenyl)acetyl]-2,3-dihydro-1H-indol-5-yl}-7-methyl-7H-pyrrolo[2,3-d]pyrimidin-4-amine] |
| ≤ 2.51 | Cn1cc(-c2ccc3c(c2)CCN3C(=O)Cc2ccc(F)cc2F)c2c(N)ncnc21 [Example 102, 5-{1-[(2,4-difluorophenyl)acetyl]-2,3-dihydro-1H-indol-5-yl}-7-methyl-7H-pyrrolo[2,3-d]pyrimidin-4-amine] |
| ≤ 0.316 | Cn1cc(-c2ccc3c(c2F)CCN3C(=O)Cc2ccccc2)c2c(N)ncnc21 [Example 112, 5-[4-fluoro-1-(phenylacetyl)-2,3-dihydro-1H-indol-5-yl]-7-methyl-7H-pyrrolo[2,3-d]pyrimidin-4-amine] |
| ≤ 0.316 | Cn1cc(-c2ccc3c(c2F)CCN3C(=O)Cc2cc(F)ccc2F)c2c(N)ncnc21 [Example 114, 5-{1-[(2,5-difluorophenyl)acetyl]-4-fluoro-2,3-dihydro-1H-indol-5-yl}-7-methyl-7H-pyrrolo[2,3-d]pyrimidin-4-amine] |
| ≤ 2.51 | Nc1ncnc2occ(-c3ccc4c(c3)CCN4C(=O)Cc3cc(F)cc(C(F)(F)F)c3)c12 [Example 119, 5-(1-{[3-fluoro-5-(trifluoromethyl)phenyl]acetyl}-2,3-dihydro-1H-indol-5-yl)furo[2,3-d]pyrimidin-4-amine] |
| ≤ 0.316 | Nc1ncnc2c1c(-c1ccc3c(c1)CCN3C(=O)Cc1cccc(C(F)(F)F)c1)cn2CCN1CCOCC1 [Example 127, 7-[2-(4-morpholinyl)ethyl]-5-(1-{[3-(trifluoromethyl)phenyl]acetyl}-2,3-dihydro-1H-indol-5-yl)-7H-pyrrolo[2,3-d]pyrimidin-4-amine] |
| ≤ 0.316 | Cc1cccc(CC(=O)N2CCc3cc(-c4cncc5[nH]nc(N)c45)ccc32)c1 [Example 130, 4-{1-[(3-methylphenyl)acetyl]-2,3-dihydro-1H-indol-5-yl}-1H-pyrazolo[3,4-c]pyridin-3-amine] |
| ≤ 1 | Nc1ncc(Cl)c2occ(-c3ccc4c(c3)CCN4C(=O)Cc3cc(F)ccc3F)c12 [Example 131, 7-chloro-3-{1-[(2,5-difluorophenyl)acetyl]-2,3-dihydro-1H-indol-5-yl}furo[3,2-c]pyridin-4-amine] |
| ≤ 1 | CN1CC(n2cc(-c3ccc4c(c3)CCN4C(=O)Cc3cccc(C(F)(F)F)c3)c3c(N)ncnc32)C1 [Example 133, 7-(1-methyl-3-azetidinyl)-5-(1-{[3-(trifluoromethyl)phenyl]acetyl}-2,3-dihydro-1H-indol-5-yl)-7H-pyrrolo[2,3-d]pyrimidin-4-amine] |
| ≤ 1 | CN(C)CCn1cc(-c2ccc3c(c2)CCN3C(=O)Cc2cccc(C(F)(F)F)c2)c2c(N)ncnc21 [Example 134, 7-[2-(dimethylamino)ethyl]-5-(1-{[3-(trifluoromethyl)phenyl]acetyl}-2,3-dihydro-1H-indol-5-yl)-7H-pyrrolo[2,3-d]pyrimidin-4-amine] |
| ≤ 0.316 | Cn1cc(-c2ccc3c(c2F)CCN3C(=O)Cc2ccc(F)cc2)c2c(N)ncnc21 [Example 141, 5-{4-fluoro-1-[(4-fluorophenyl)acetyl]-2,3-dihydro-1H-indol-5-yl}-7-methyl-7H-pyrrolo[2,3-d]pyrimidin-4-amine] |
| ≤ 1 | Cn1nc(N)c2c(-c3ccc4c(c3)CCN4C(=O)Cc3cccc(C(F)(F)F)c3)cncc21 [Example 143, 1-methyl-4-(1-{[3-(trifluoromethyl)phenyl]acetyl}-2,3-dihydro-1H-indol-5-yl)-1H-pyrazolo[3,4-c]pyridin-3-amine] |
| ≤ 0.316 | Nc1ncnc2c1c(-c1ccc3c(c1)CCN3C(=O)Cc1cc(F)ccc1F)cn2C1CNC1 [Example 144, 7-(3-azetidinyl)-5-{1-[(2,5-difluorophenyl)acetyl]-2,3-dihydro-1H-indol-5-yl}-7H-pyrrolo[2,3-d]pyrimidin-4-amine] |

Second part, the molecule before the results:

| SMILES | IC50 [nM] |
| --- | --- |
| Cc1cccc(CC(=O)N2CCc3cc(-c4nn(C)c5ncnc(N)c45)ccc32)c1F [Example 74, 3-{1-[(2-fluoro-3-methylphenyl)acetyl]-2,3-dihydro-1H-indol-5-yl}-1-methyl-1H-pyrazolo[3,4-d]pyrimidin-4-amine] | ≤ 1 |
| Cc1cccc(CC(=O)N2CCc3cc(-c4cn(C)c5ncnc(N)c45)ccc32)c1C [Example 81, 5-{1-[(2,3-dimethylphenyl)acetyl]-2,3-dihydro-1H-indol-5-yl}-7-methyl-7H-pyrrolo[2,3-d]pyrimidin-4-amine] | ≤ 1 |
| Cc1cccc(CC(=O)N2CCc3cc(-c4nn(C(C)C)c5ncnc(N)c45)ccc32)c1 [Example 82, 1-(1-methylethyl)-3-{1-[(3-methylphenyl)acetyl]-2,3-dihydro-1H-indol-5-yl}-1H-pyrazolo[3,4-d]pyrimidin-4-amine] | ≤ 2.51 |
| Cn1cc(-c2ccc3c(c2)CCN3C(=O)Cc2cc(F)cc(F)c2F)c2c(N)ncnc21 [Example 90, 7-methyl-5-{1-[(2,3,5-trifluorophenyl)acetyl]-2,3-dihydro-1H-indol-5-yl}-7H-pyrrolo[2,3-d]pyrimidin-4-amine] | ≤ 0.316 |
| Cn1cc(-c2ccc3c(c2)CCN3C(=O)Cc2ccc(F)cc2)c2c(N)ncnc21 [Example 93, 5-{1-[(4-fluorophenyl)acetyl]-2,3-dihydro-1H-indol-5-yl}-7-methyl-7H-pyrrolo[2,3-d]pyrimidin-4-amine] | ≤ 2.51 |
| Cc1cc(C)n(CC(=O)N2CCc3cc(-c4cn(C)c5ncnc(N)c45)ccc32)n1 [Example 111, 5-{1-[(3,5-dimethyl-1H-pyrazol-1-yl)acetyl]-2,3-dihydro-1H-indol-5-yl}-7-methyl-7H-pyrrolo[2,3-d]pyrimidin-4-amine] | ≤ 1 |
| Cc1cccc(CC(=O)N2CCc3cc(-c4cn(C)c5ncnc(N)c45)ccc32)n1 [Example 121, 7-methyl-5-{1-[(6-methyl-2-pyridinyl)acetyl]-2,3-dihydro-1H-indol-5-yl}-7H-pyrrolo[2,3-d]pyrimidin-4-amine] | ≤ 2.51 |
| Cn1cc(-c2ccc3c(c2)CCN3C(=O)Cc2cccc(C(F)(F)F)n2)c2c(N)ncnc21 [Example 125, 7-methyl-5-(1-{[6-(trifluoromethyl)-2-pyridinyl]acetyl}-2,3-dihydro-1H-indol-5-yl)-7H-pyrrolo[2,3-d]pyrimidin-4-amine] | ≤ 1 |
| Cc1cccc(CC(=O)N2CCc3c2ccc(-c2cn(C)c4ncnc(N)c24)c3F)n1 [Example 136, 5-{4-fluoro-1-[(6-methyl-2-pyridinyl)acetyl]-2,3-dihydro-1H-indol-5-yl}-7-methyl-7H-pyrrolo[2,3-d]pyrimidin-4-amine] | ≤ 1 |
| Cn1cc(-c2ccc3c(c2F)CCN3C(=O)Cc2cccc(C(F)(F)F)n2)c2c(N)ncnc21 [Example 137, 5-(4-fluoro-1-{[6-(trifluoromethyl)-2-pyridinyl]acetyl}-2,3-dihydro-1H-indol-5-yl)-7-methyl-7H-pyrrolo[2,3-d]pyrimidin-4-amine] | ≤ 1 |
| Cc1cc(C)n(CC(=O)N2CCc3c2ccc(-c2cn(C)c4ncnc(N)c24)c3F)n1 [Example 138, 5-{1-[(3,5-dimethyl-1H-pyrazol-1-yl)acetyl]-4-fluoro-2,3-dihydro-1H-indol-5-yl}-7-methyl-7H-pyrrolo[2,3-d]pyrimidin-4-amine] | ≤ 2.51 |
